Laboratory results: PubChem BioAssay (NCI)
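Growth conditions: 96-well plates. Treatment: test compound, 48 hours, 5 concentrations. Analysis: linear interpolation between bracketing concentrations; unreached endpoints set to highest concentration. At the TGI there is no net growth.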

What was measured:
Test in all cases: NCI anticancer screen, dose series, 48 h
[1] = system: CCRF-CEM leukemia
[2] = system: DU-145 prostate
[3] = system: MCF7 breast
[4] = system: MDA-MB-435
[5] = system: NCI-H23 lung
[6] = system: NCI/ADR-RES ovarian
[7] = system: OVCAR-5 ovarian
[8] = system: RPMI-8226 leukemia
[9] = system: SF-295 CNS
[10] = system: UO-31 renal

Compound	TGI [1] [µM]	TGI [2] [µM]	TGI [3] [µM]	TGI [4] [µM]	TGI [5] [µM]	TGI [6] [µM]	TGI [7] [µM]	TGI [8] [µM]	TGI [9] [µM]	TGI [10] [µM]
Cc1ccc(S(=O)(=O)N/C(=C\C=C\c2ccccc2)C(=O)C(C)(C)C)cc1	> 100	> 100	> 100	> 100	> 100	> 100	> 100	75.9	> 100	> 100
CC(=O)OC[C@H]1O[C@@H](O[C@H]2[C@H](OC(C)=O)C=CO[C@@H]2COC(C)=O)C(OC(C)=O)[C@H]2OC(C)(C)O[C@H]21 (stereo partly specified)	> 100	–	> 100	> 100	> 100	> 100	> 100	–	> 100	> 100
Cn1ccnc1Sc1ccc(/C=N/NC(=O)c2ccccc2O)cc1[N+](=O)[O-]	> 100	> 100	> 100	> 100	> 100	> 100	> 100	41.2	> 100	> 100
CCCCOC(=O)CNC(=O)OCCCCC#CC#CCCCCOC(=O)NCC(=O)OCCCC	> 100	–	–	–	> 100	–	> 100	> 100	> 100	> 100
COc1cccc(N2C(=O)C3c4[nH]c5ccccc5c4C4c5ccccc5CCC4C3C2=O)c1 (stereo unspecified)	> 10	> 10	> 10	> 10	> 10	> 10	> 10	> 10	> 10	> 10
OC(C1CCC=NN1C(O)(C(F)(F)F)C(F)(F)F)(C(F)(F)F)C(F)(F)F (stereo unspecified)	> 10	> 10	> 10	> 10	> 10	> 10	> 10	> 10	> 10	–
CC(=O)O/C=C\OC1CCCC1(c1ccccc1)c1ccccc1 (stereo unspecified)	5.71	13.7	5.42	4.11	8.11	8.53	15.3	6.13	23	3.61
COc1cc2c3cc1Oc1c(O)c(OC)cc4c1[C@H](Cc1ccc(cc1)Oc1cc(ccc1O)C[C@H]3N(C)CC2)N(C)CC4	42.7	37.5	44.4	27.1	51.8	78.4	58.6	20	31.3	44.8
O=C(c1ccc(Cl)cc1)c1ccc(OCC(=O)N2CCN(c3ccccc3)CC2)cc1	> 100	–	–	–	> 100	–	> 100	> 100	> 100	> 100
CCOC(=O)/C(O)=C1\C(=O)N(C)C(=O)C1c1ccc(OC)c(OC)c1 (stereo unspecified)	> 100	–	> 100	–	> 100	> 100	> 100	> 100	> 100	> 100
COc1ccc2c(c1)O[C@@H]1C(O)Oc3cc(OC)c(OC)cc3[C@]1(O)C2=O (stereo partly specified)	> 100	> 100	> 100	> 100	> 100	> 100	> 100	> 100	> 100	–
